These are literature values, as cited in patent US7737177B2, “Processes for preparing crystalline and amorphous mupirocin calcium” (priority 2001, dated 2010).

Read-outs that look alike come from different tables or passages of the source.

Data set [1] has as its system Gram positive bacteria (e.g. Staphylococcus aureus, Streptococcus pyogenes, Streptococcus pneumoniae, Klebsiella pneumoniae) and some Gram negative bacteria (e.). The following applies: mainly Gram positive and some Gram negative bacteria; cited from earlier work.
For data set [2] the following is noted: both for humans and animals; cited from earlier work.
For data set [3] the following is noted: expressed as a percentage of pure free pseudomonic acid, cited from earlier work.

Take `C/C(=C\C(=O)OCCCCCCCCC(=O)O)C[C@@H]1OC[C@H](C[C@@H]2O[C@H]2[C@@H](C)[C@H](C)O)[C@@H](O)[C@H]1O` [Pseudomonic acid A, 9-{4[5S(2S,3S-epoxy-5S-hydroxy-4S-methylhexyl)-3R,4R-dihydroxy-tetrahydropyran-2S-yl]-3-methylbut-2(E)-enoyloxy}nonanoic acid]: the minimal inhibiting concentration in data set [1] is 0.02 to 0.5 µg/mL. Moreover, the toxicity entry in data set [2] is reported as “very low toxicity”. The Purity after storage in data set [3] (2 weeks, 37° C.) is 90.61%; in data set [3] (2 weeks, 50° C.), 51.18%; in data set [3] (2 weeks, 80° C.), 0%; in data set [3] (8 days, 80° C.), 0%; in data set [3] (10 days, 50° C.), 71.59%.
